Assay results taken from ChEMBL document CHEMBL5465560, “Selectivity Literature for EUbOPEN Chemogenomic Library” (2024).
Values belong to the molecule of their own block, whether it stands above or below them.

Tests used:
[1] = biological target: Serine/threonine-protein kinase PAK 1 (Homo sapiens) (UniProt Q13153); assay: Selectivity interaction (Kinase panel (Z-LYTE Assay)) EUB0001632a PAK1; conditions: at 10 µM
[2] = biological target: Tyrosine-protein kinase CSK (Homo sapiens) (UniProt P41240); conditions: at 10 µM
[3] = biological target: Serine/threonine-protein kinase MARK2 (Homo sapiens) (UniProt Q7KZI7); conditions: at 10 µM
[4] = biological target: T1, Serine/threonine-protein kinase Sgk2 (Homo sapiens) (UniProt Q9HBY8); assay: Selectivity interaction (ProQinase) EUB0000171b SGK2
T1 sequence (whole entry): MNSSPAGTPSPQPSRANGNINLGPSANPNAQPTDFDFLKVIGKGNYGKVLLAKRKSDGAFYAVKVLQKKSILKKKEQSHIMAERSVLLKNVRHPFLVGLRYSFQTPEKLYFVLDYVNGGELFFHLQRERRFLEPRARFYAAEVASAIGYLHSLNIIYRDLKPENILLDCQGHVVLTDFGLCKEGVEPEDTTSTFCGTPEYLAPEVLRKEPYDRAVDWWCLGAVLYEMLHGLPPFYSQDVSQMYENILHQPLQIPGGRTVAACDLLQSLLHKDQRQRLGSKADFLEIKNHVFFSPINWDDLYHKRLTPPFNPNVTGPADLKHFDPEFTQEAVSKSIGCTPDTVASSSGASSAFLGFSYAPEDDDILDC

[5] = biological target: T2, Cytoplasmic tyrosine-protein kinase BMX (Homo sapiens) (UniProt P51813); assay: Selectivity interaction (KinomeScan (DiscoverX)) EUB0001079a BMX; conditions: at 1 µM
T2 sequence (whole entry): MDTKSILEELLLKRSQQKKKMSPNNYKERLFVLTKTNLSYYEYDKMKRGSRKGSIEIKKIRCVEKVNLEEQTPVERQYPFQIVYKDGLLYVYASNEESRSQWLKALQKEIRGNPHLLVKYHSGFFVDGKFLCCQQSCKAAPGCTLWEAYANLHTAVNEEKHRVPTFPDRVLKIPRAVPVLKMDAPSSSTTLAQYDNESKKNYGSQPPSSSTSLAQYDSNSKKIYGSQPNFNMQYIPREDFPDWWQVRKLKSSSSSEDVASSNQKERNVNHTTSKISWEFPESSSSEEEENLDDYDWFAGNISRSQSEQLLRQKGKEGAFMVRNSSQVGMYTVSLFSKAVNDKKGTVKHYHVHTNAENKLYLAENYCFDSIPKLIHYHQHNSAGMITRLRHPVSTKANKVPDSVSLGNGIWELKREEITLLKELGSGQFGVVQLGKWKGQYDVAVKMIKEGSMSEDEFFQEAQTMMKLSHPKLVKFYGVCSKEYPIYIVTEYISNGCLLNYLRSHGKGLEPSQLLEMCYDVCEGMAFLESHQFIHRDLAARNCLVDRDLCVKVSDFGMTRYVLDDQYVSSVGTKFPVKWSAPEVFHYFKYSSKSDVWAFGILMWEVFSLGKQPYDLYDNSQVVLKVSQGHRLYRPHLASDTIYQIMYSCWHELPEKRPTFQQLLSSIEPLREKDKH

[6] = tested on: T3, Receptor-type tyrosine-protein kinase FLT3 (Homo sapiens), P36888 [D835Y]; conditions: at 10 µM
T3 sequence (whole entry): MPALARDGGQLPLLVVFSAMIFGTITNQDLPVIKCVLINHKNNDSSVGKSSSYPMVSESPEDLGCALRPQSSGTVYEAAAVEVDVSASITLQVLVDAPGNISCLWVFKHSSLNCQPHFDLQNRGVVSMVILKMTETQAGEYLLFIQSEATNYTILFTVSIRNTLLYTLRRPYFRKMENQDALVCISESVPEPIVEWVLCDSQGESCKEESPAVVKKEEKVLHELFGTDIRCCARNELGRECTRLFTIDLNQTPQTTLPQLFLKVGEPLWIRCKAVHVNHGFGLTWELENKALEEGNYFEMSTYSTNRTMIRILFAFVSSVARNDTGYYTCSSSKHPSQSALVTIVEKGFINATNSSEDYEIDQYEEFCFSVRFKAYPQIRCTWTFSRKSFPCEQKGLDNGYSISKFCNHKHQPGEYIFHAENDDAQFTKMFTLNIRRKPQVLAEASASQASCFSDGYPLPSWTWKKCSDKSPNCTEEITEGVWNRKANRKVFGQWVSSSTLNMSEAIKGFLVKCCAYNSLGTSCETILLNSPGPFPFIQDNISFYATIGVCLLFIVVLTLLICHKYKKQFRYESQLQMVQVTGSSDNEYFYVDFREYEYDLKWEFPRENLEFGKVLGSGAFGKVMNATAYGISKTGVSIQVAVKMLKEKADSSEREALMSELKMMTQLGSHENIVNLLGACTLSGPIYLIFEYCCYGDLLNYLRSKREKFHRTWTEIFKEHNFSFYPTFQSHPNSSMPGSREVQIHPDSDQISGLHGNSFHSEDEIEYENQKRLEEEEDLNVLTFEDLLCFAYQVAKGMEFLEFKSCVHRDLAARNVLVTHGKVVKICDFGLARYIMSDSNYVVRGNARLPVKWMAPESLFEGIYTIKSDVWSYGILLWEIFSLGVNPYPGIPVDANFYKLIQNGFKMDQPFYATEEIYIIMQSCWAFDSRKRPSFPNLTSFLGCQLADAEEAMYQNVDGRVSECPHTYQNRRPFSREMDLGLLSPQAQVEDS

[7] = biological target: Calcium/calmodulin-dependent protein kinase type 1D (Homo sapiens) (UniProt Q8IU85); assay: Selectivity interaction (KinomeScan (DiscoverX)) EUB0000618a CAMK1D; conditions: at 10 µM
[8] = biological target: Serine/threonine-protein kinase 25 (Homo sapiens) (UniProt O00506); assay: Selectivity interaction (ActivX KiNativ screen (ex vivo kinase selectivity in human PBMCs)) EUB0001619a STK25; format: cell-based; conditions: PBMC, at 1 µM
Serine/threonine-protein kinase 25 (Homo sapiens), sequence (O00506 whole entry, looked up): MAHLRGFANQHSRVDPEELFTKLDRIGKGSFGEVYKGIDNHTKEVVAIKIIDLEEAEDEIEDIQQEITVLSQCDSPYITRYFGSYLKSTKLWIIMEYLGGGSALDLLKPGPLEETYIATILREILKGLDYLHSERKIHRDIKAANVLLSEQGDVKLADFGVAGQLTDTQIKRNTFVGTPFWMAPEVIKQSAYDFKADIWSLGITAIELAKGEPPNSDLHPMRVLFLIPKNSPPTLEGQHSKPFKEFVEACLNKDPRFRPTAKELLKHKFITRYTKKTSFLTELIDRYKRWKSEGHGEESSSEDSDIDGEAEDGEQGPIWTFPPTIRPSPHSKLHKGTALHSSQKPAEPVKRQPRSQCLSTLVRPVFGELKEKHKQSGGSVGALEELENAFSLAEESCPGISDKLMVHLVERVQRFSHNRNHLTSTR

Serine/threonine-protein kinase PAK 1 (Homo sapiens), sequence (Q13153 whole entry): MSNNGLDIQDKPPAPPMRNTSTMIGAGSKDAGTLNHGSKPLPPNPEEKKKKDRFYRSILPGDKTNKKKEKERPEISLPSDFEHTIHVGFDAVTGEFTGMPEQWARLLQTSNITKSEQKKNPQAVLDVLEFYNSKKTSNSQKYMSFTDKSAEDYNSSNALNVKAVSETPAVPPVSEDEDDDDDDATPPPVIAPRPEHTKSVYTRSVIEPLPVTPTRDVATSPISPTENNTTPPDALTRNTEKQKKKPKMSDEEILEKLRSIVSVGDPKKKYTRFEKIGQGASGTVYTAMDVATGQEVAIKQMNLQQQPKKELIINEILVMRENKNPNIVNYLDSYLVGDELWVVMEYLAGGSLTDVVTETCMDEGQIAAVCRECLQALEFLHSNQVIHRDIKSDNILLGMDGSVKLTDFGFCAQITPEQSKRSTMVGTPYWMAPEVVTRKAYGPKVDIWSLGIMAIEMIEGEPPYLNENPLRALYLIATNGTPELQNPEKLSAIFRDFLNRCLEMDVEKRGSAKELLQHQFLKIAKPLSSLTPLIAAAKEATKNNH
Calcium/calmodulin-dependent protein kinase type 1D (Homo sapiens), sequence (Q8IU85 whole entry, looked up): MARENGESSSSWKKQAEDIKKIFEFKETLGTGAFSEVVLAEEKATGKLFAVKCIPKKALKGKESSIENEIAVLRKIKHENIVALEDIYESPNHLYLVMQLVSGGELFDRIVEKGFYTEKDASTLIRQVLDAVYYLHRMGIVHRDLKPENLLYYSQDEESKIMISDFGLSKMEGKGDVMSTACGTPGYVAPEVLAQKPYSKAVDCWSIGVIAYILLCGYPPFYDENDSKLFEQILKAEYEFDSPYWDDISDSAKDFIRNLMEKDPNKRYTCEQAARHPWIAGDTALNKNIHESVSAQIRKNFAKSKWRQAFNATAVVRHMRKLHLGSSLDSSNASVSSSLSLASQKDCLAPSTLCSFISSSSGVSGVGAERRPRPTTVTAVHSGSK
Serine/threonine-protein kinase MARK2 (Homo sapiens), sequence (Q7KZI7 whole entry): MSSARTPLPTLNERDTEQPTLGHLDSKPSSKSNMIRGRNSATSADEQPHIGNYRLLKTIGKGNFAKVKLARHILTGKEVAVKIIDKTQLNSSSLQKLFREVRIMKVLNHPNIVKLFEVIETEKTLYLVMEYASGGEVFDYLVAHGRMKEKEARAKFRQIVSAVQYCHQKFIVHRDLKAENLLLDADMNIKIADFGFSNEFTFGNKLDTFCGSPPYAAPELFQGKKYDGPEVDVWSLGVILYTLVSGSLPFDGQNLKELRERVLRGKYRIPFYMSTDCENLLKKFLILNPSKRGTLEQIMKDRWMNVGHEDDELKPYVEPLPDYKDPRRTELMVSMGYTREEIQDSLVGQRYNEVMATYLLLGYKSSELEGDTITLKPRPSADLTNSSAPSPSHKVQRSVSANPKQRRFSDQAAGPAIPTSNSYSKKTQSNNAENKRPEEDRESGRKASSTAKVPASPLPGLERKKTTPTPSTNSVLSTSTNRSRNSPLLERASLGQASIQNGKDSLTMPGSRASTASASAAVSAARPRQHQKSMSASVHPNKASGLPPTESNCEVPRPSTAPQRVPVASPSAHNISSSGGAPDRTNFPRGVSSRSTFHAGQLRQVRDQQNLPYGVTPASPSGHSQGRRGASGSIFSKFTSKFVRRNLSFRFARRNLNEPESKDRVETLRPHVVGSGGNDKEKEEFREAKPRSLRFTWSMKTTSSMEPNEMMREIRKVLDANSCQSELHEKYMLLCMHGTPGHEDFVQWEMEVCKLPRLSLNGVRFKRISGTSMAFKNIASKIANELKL
Tyrosine-protein kinase CSK (Homo sapiens), sequence (P41240 2-450 limits assumed): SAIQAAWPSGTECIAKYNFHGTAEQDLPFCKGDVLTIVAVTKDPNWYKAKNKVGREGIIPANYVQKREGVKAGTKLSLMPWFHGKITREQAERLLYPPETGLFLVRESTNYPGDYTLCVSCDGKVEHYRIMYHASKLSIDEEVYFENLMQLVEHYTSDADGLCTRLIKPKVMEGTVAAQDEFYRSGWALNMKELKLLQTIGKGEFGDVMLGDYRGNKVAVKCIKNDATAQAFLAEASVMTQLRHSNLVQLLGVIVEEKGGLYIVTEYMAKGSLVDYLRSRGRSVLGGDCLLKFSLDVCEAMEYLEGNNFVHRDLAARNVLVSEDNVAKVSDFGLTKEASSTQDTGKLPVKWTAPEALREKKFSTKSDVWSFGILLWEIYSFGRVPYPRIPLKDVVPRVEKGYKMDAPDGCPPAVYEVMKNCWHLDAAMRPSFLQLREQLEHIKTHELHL

% of control [1]: -0.498%
SMILES: Cn1cc(-n2cnc3c(NCc4nc5cc(Cl)c(Cl)cc5[nH]4)nc(N4CCOCC4)nc32)cn1

% of control [2]: 100% | % of control [3]: 100%
SMILES: CCN(CC)CCCCNc1ncc2cc(-c3cc(OC)cc(OC)c3)c(NC(=O)NC(C)(C)C)nc2n1

% of control ([4]; at 1 µM): 93% | % of control ([4]; at 5 µM): 71%
SMILES: C=CC(=O)Nc1cccc(C(=O)Nc2ccc(Nc3cc(-c4[nH]c(SC)nc4C)ccn3)cc2)c1

SMILES: Nc1cnc(N2CCc3cc(S(=O)(=O)Nc4c(F)cc(Cl)cc4F)cc(N4CCCC4=O)c32)nc1 [TP-020n]
% of control [5]: 100%

SMILES: Cc1cc([C@@H](C)Nc2ccccc2C(=O)O)c2nc(N3CCOCC3)cc(=O)n2c1 [AZD-6482]
% of control [6]: 54%

SMILES: O[C@H]1CC[C@H](Nc2ncc3nc(Nc4c(F)cc(F)cc4F)n([C@H]4CCOC4)c3n2)CC1
% of control [7]: 93%

SMILES: N#Cc1cccc(-c2c[nH]c3ncnc(N4CCOCC4)c23)c1
% of inhibition [8]: 65%
